Source: ChEMBL document CHEMBL1139656, “Aminoalkyl phenyl sulfones--a novel series of 5-HT7 receptor ligands” (Bioorg Med Chem Lett, 2006)
pKi: −log10 of the molar value.

Legend:
[1] = molecular target: T1, 5-hydroxytryptamine receptor 7 (Homo sapiens, UniProt P34969); assay: Displacement of [3H]5-HT from the cloned human 5-HT7 receptor expressed in CHO cells; assay type: cell-based
[2] = molecular target: T2, 5-hydroxytryptamine receptor 1A (Homo sapiens, UniProt P08908); assay: Displacement of [3H]5-HT from the cloned human 5-HT1A receptor expressed in HeLa cells; assay type: cell-based
T2 sequence (P08908 whole entry): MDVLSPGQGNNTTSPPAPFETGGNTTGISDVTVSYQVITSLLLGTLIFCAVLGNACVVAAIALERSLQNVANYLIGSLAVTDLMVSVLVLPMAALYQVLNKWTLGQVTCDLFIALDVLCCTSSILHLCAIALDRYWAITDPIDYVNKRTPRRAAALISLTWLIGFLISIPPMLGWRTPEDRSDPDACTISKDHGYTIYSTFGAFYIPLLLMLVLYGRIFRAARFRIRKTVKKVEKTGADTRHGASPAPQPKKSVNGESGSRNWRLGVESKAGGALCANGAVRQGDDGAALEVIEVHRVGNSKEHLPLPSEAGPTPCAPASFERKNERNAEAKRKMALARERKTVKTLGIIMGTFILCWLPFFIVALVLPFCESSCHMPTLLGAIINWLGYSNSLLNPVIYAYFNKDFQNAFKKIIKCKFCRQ

[3] = molecular target: 5-hydroxytryptamine receptor 2A (Homo sapiens, UniProt P28223); assay: Displacement of [3H]ketanserin from the cloned human 5-HT2A receptor expressed in CHO cells; assay type: cell-based
[4] = molecular target: T1, 5-hydroxytryptamine receptor 7; assay: Activity towards human 5-HT7 receptor at 10 uM relative to 5-CT; assay type: functional
[5] = molecular target: 5-hydroxytryptamine receptor 1B (Homo sapiens, UniProt P28222); assay: Displacement of [3H]5-HT from the cloned human 5-HT1B receptor expressed in CHO cells; assay type: cell-based
D(2) dopamine receptor = D(2) dopamine receptor (Homo sapiens, UniProt P14416); assay: Displacement of [3H]spiperone from the cloned human D2 receptor expressed in CHO cells; assay type: cell-based
[6] = molecular target: T3, Adrenergic receptor alpha-1 (Rattus norvegicus, UniProt P15823+P23944+P43140); assay: Displacement of [3H]prazosin from alpha-1 adrenergic receptor in rat cortex
T3 sequence (P15823 whole entry): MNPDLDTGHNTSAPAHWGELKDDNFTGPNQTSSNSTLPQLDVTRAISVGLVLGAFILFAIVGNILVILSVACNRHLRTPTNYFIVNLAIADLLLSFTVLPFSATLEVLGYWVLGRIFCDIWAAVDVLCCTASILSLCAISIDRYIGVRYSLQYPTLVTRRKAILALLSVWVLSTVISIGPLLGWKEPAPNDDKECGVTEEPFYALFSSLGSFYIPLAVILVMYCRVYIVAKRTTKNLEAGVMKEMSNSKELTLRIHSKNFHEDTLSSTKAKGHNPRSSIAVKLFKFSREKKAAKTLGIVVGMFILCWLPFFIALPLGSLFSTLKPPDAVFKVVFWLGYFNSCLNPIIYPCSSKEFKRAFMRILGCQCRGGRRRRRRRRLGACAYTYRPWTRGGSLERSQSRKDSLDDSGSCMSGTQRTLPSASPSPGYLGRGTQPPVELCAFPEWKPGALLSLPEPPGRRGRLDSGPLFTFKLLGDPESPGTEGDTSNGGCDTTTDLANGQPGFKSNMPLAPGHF
T3 sequence (P23944 whole entry): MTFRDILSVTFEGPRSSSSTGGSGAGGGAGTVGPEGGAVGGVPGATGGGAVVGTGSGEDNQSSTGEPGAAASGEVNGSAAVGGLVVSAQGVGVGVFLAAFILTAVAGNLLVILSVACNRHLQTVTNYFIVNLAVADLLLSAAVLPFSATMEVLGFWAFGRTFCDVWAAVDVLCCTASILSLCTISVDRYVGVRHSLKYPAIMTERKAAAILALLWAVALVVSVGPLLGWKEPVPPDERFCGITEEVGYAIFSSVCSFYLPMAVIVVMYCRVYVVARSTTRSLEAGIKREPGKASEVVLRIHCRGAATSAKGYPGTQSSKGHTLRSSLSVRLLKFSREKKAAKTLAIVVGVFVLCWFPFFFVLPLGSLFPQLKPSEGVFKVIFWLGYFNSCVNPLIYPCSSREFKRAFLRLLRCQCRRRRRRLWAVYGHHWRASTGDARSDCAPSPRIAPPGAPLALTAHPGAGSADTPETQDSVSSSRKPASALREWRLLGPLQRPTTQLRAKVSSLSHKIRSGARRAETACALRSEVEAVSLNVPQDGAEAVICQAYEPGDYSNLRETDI
T3 sequence (P43140 whole entry): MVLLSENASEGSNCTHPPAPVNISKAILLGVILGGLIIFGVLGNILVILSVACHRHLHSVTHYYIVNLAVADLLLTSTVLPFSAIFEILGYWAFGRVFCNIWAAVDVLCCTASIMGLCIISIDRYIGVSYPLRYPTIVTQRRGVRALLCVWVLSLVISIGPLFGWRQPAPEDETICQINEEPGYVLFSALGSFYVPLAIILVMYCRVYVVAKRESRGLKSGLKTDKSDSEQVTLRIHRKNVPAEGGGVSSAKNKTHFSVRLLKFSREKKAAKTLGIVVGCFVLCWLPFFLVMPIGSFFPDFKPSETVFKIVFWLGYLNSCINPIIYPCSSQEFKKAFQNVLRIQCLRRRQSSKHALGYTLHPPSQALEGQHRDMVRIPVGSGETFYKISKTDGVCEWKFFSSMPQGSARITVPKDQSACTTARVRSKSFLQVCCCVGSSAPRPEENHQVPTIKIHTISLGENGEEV

[7] = molecular target: Voltage-gated inwardly rectifying potassium channel KCNH2 (Homo sapiens, UniProt Q12809); assay: Displacement of [35S]-labeled MK-499 from cloned human ERG receptor expressed in HEK cells; assay type: cell-based, HEK293
Sequence of Voltage-gated inwardly rectifying potassium channel KCNH2 (Q12809 whole entry): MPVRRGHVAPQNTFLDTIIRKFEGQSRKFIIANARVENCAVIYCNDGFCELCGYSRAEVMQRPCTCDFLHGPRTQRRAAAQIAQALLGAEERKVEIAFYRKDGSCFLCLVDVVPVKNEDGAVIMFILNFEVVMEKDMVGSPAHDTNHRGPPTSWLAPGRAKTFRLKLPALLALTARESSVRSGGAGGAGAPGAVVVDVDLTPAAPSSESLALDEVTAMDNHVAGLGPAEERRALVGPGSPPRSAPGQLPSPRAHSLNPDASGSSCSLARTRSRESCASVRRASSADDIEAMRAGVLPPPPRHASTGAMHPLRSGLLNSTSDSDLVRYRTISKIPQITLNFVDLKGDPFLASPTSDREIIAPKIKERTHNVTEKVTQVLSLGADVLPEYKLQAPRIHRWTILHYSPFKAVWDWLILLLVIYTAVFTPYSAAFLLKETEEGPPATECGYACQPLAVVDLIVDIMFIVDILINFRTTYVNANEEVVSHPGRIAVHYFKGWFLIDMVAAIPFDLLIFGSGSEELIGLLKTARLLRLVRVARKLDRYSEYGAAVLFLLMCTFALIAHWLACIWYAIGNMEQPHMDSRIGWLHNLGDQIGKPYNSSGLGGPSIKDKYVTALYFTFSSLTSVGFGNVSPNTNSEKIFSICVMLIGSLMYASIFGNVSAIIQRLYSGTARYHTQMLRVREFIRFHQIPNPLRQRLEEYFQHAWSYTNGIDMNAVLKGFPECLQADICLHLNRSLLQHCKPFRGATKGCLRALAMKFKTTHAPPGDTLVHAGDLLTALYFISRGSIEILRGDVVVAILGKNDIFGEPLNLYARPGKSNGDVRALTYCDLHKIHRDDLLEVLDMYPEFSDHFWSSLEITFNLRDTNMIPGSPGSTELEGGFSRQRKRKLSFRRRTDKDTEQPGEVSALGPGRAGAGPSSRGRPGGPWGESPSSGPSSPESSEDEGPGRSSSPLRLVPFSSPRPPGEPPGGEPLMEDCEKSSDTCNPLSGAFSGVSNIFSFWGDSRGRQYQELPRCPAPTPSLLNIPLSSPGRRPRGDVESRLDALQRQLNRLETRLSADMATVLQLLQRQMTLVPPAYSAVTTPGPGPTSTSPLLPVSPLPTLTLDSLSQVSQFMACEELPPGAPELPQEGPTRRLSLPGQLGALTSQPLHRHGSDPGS

Sequence of 5-hydroxytryptamine receptor 2A (P28223 whole entry): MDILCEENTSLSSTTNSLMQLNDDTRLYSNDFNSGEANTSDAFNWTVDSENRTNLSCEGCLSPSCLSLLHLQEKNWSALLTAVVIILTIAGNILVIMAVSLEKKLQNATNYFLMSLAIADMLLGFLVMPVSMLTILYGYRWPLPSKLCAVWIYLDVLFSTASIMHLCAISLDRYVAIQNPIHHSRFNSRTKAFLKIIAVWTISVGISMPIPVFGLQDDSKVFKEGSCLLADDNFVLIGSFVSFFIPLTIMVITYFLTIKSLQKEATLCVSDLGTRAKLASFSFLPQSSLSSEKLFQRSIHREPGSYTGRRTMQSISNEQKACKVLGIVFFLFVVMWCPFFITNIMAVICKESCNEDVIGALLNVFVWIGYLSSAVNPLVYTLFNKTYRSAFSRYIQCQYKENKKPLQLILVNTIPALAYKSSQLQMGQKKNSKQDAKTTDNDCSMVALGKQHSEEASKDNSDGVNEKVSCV
Sequence of D(2) dopamine receptor (P14416 whole entry): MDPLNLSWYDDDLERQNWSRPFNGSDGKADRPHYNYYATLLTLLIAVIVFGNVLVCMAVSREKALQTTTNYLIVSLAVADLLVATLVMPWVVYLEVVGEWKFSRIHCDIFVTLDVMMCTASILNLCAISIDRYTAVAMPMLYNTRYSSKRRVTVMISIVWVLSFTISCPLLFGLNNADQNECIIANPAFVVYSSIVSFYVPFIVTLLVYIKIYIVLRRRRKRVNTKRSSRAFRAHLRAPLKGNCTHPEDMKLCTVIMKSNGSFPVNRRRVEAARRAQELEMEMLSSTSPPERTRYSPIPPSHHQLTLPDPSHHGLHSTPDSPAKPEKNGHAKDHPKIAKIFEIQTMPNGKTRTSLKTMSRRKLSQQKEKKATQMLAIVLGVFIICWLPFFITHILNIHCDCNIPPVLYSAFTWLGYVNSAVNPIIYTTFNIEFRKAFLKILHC
T1 sequence (P34969 whole entry): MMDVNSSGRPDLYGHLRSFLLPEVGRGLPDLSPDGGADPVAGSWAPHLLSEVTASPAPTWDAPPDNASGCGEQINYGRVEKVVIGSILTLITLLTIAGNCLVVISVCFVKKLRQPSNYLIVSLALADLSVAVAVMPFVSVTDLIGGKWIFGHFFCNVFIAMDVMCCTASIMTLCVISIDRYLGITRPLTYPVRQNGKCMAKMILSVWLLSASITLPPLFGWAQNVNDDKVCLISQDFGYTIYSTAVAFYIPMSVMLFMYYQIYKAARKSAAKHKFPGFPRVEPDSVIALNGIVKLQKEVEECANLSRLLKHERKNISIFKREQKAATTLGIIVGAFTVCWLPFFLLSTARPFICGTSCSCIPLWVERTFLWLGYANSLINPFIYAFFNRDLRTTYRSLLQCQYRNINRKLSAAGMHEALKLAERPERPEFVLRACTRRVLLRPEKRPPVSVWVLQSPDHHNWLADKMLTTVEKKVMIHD
Sequence of 5-hydroxytryptamine receptor 1B (P28222 whole entry): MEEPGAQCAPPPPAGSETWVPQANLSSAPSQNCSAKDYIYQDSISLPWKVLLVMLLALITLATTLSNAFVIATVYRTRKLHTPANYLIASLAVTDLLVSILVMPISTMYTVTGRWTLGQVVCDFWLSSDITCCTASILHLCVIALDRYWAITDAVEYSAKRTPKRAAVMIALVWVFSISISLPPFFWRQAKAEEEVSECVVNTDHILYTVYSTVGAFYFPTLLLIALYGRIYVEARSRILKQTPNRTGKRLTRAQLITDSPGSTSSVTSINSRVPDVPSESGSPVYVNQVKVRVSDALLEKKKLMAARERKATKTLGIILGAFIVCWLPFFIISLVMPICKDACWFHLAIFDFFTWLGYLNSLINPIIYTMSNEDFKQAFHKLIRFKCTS

| SMILES | pKi [1] | pKi [2] | pKi [3] | Activity [4] | pKi [5] | pKi (D(2) dopamine receptor) | Ki [6] | pKi [7] |
| --- | --- | --- | --- | --- | --- | --- | --- | --- |
| CCOC(=O)[C@@H]1CCCN(CCCC(C)(C)S(=O)(=O)c2ccccc2)C1 | 7.62 | 5.62 | 5.73 | 0% | < 5.15 | 6.15 | > 4000 nM⁻¹ |  |
| CCOC(=O)[C@H]1CCCN(CCCC(C)(C)S(=O)(=O)c2ccccc2)C1 | 6.34 |  |  |  |  |  |  |  |
| CC1CCN(CCCC2(S(=O)(=O)c3ccccc3)CCC2)CC1 | 6.26 |  |  |  |  |  |  |  |
| O=S(=O)(c1ccccc1)C1(CCCN2CCN(c3ccccc3)CC2)CCC1 | 7.66 |  |  |  |  |  |  |  |
| CN(C)CCCC1(S(=O)(=O)c2ccccc2)CCC1 | < 5.15 |  |  |  |  |  |  |  |
| O=S(=O)(c1ccccc1)C1(CCCN2CCC(c3ccccc3)CC2)CCC1 | 7.59 |  |  |  |  |  |  |  |
| O=S(=O)(c1ccccc1)C1(CCCN2CCCCC2)CCC1 | 5.57 |  |  |  |  |  |  |  |
| O=S(=O)(c1ccccc1)C1(CCCN2CCOCC2)CCC1 | < 5.15 |  |  |  |  |  |  |  |
| CN1CCN(CCCC2(S(=O)(=O)c3ccccc3)CCC2)CC1 | 5.24 |  |  |  |  |  |  |  |
| O=S(=O)(CCCCN1CCC2CCCCC2C1)c1ccccc1 (racemic) | 7.02 |  |  |  |  |  |  |  |
| CC(C)(CCCN1CCCC(c2cnco2)C1)S(=O)(=O)c1ccccc1 (racemic) | 7.82 | < 5.15 | < 6.00 | 12% | < 5.30 | 5.82 | > 4000 nM⁻¹ | < 5.10 |
| CC(C)(CCCN1CCCC(C(F)(F)F)C1)S(=O)(=O)c1ccccc1 (racemic) | 7.27 | < 5.15 | < 5.70 | 0% | < 5.15 | < 6.00 | > 4000 nM⁻¹ | < 5.30 |
| O=S(=O)(c1ccccc1)C1(CCN2CCC(c3ccccc3)C2)CCC1 (racemic) | 7.28 |  |  |  |  |  |  |  |

Compounds with a higher pKi [1], results first:

| pKi [1] | pKi [2] | pKi [3] | Activity [4] | pKi [5] | pKi (D(2) dopamine receptor) | Ki [6] | SMILES | pKi [7] |
| --- | --- | --- | --- | --- | --- | --- | --- | --- |
| 7.89 |  |  |  |  |  |  | O=S(=O)(c1ccccc1)C1(CCCCN2CCC(c3ccccc3)C2)CCC1 (racemic) |  |
| 8.05 |  |  |  |  |  |  | O=S(=O)(c1ccccc1)C1(CCCN2CCC(c3ccccc3)C2)CCC1 (racemic) |  |
| 8.10 | 7.46 | 7.19 | 5% |  |  |  | O=S(=O)(c1ccccc1)C1(CCCN2CCc3ccccc3C2)CCC1 |  |
| 8.10 | 5.82 | 5.70 | 83% | < 5.15 | 6.05 | 3900 nM⁻¹ | CC(C)(CCCN1CC[C@@H]2CCCC[C@H]2C1)S(=O)(=O)c1ccccc1 (racemic) | < 5.40 |
| 8.15 | 6.40 | 5.74 | 0% | 5.11 | 6.66 | 540 nM⁻¹ | CC(C)(CCCN1CCCC(c2ccccc2)C1)S(=O)(=O)c1ccccc1 (racemic) | < 5.30 |
| 8.22 | 6.68 | 6.24 | 39% |  |  |  | O=S(=O)(c1ccccc1)C1(CCCN2CCC3CCCCC3C2)CCC1 (racemic) |  |
